These results are taken from patent US11554171B2, “Compounds and methods for the targeted degradation of bromodomain-containing proteins” (Arvinas Operations, Inc., priority 2015, dated 2023).

The test system of the assay is c-myc in 22RV-1 cells. Briefly: Human c-myc ELISA assay. It counts as cell-based. The settings on record: Homo sapiens; for Emax: 22Rv1, 18 h, read-out: Degradation of BRD4: Maximum inhibition (%) c-Myc ELISA in 22RV1 cells; for DC50: 22Rv1, read-out: Degradation of BRD4: DC50 (uM) c-Myc ELISA in 22RV1 cells. The gist of the method: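 c-myc levels measured by ELISA in RIPA lysates of 22RV-1 cells, calibrated with a 333-0 pg/ml standard curve. Lysates came from cells exposed for 18 h to an 8-point, 1:3 dose series starting at 300 nM or 1 μM final in 0.1% DMSO. Suppression potency given as DC50.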
A general note: An ELISA detects its analyte on a solid surface through an enzyme-linked reagent.

With `Cc1ncsc1-c1ccc([C@H](C)NC(=O)[C@@H]2C[C@@H](O)CN2C(=O)[C@@H](NC(=O)[C@H](C)OCCCOCCNC(=O)C[C@@H]2N=C(c3ccc(Cl)cc3)c3c(sc(C)c3C)-n3c(C)nnc32)C(C)(C)C)cc1` [Example 153], the Emax amounted to 92% and the DC50 (in general, the midpoint of the concentration-degradation curve) is below 0.01 µM.

Regarding `Cc1ncsc1-c1ccc(CNC(=O)[C@@H]2C[C@@H](O)CN2C(=O)[C@@H](NC(=O)COCCCOCCCOc2ccc(NC(=O)C[C@@H]3N=C(c4ccc(Cl)cc4)c4c(sc(C)c4C)-n4c(C)nnc43)cc2)C(C)(C)C)cc1` [Example 16], the Emax turned out to be 98.6% and the DC50 lay in the range of 0.01 to 0.1 µM.

Regarding `Cc1ncsc1-c1ccc([C@H](C)NC(=O)[C@@H]2C[C@@H](O)CN2C(=O)[C@@H](NC(=O)COc2ccc(N3CC[C@@H](NC(=O)C[C@@H]4N=C(c5ccc(Cl)cc5)c5c(sc(C)c5C)-n5c(C)nnc54)C3)nc2)C(C)(C)C)cc1` [Example 242], the Emax was found to be 98% and the DC50 was below 0.01 µM.

As to `Cc1ncsc1-c1ccc(CNC(=O)[C@@H]2C[C@@H](O)CN2C(=O)[C@@H](NC(=O)COCCOCCOCCOCCOCCNC(=O)C[C@@H]2N=C(c3ccc(Cl)cc3)c3c(sc(C)c3C)-n3c(C)nnc32)C(C)(C)C)cc1` [Example 7], the Emax stood at 93% and the DC50 is 0.1 to 1 µM.

Take `Cc1ncsc1-c1ccc([C@H](C)NC(=O)[C@@H]2C[C@@H](O)CN2C(=O)[C@@H](NC(=O)/C=C/c2cccc(O[C@@H](C)CNC(=O)C[C@@H]3N=C(c4ccc(Cl)cc4)c4c(sc(C)c4C)-n4c(C)nnc43)c2)C(C)(C)C)cc1` [Example 158]: the Emax was determined as 96.5% and the DC50 was below 0.01 µM.

On to `Cc1ncsc1-c1ccc([C@H](C)NC(=O)[C@@H]2C[C@@H](O)CN2C(=O)[C@@H](NC(=O)c2cc3ccc(O[C@H]4C[C@@H](NC(=O)C[C@@H]5N=C(c6ccc(Cl)cc6)c6c(sc(C)c6C)-n6c(C)nnc65)C4)cc3o2)C(C)(C)C)cc1` [Example 212], for which the Emax was 95% and the DC50 is below 0.01 µM.

As to `Cc1ncoc1-c1ccc([C@H](C)NC(=O)[C@@H]2C[C@@H](O)CN2C(=O)[C@@H](C(C)C)n2cc(-c3cccc(O[C@H]4C[C@@H](NC(=O)C[C@@H]5N=C(c6ccc(Cl)cc6)c6c(sc(C)c6C)-n6c(C)nnc65)C4)c3)cn2)cc1` [Example 285], the Emax was found to be 44.4% and the half-maximal degradation concentration (DC50) was above 1 µM.

Consider `Cc1ncsc1-c1ccc(CNC(=O)[C@@H]2C[C@@H](O)CN2C(=O)[C@H](c2cc(OCCN3CC[C@@H](NC(=O)C[C@@H]4N=C(c5ccc(Cl)cc5)c5c(sc(C)c5C)-n5c(C)nnc54)C3)no2)C(C)C)cc1` (single isomer, unassigned) [Example 311], for which the Emax came to 43.6% and the DC50 is above 1 µM.

Take `Cc1ncsc1-c1ccc(CNC(=O)[C@@H]2C[C@@H](O)CN2C(=O)[C@@H](NC(=O)COCCN2CCC(NC(=O)C[C@@H]3N=C(c4ccc(Cl)cc4)c4c(sc(C)c4C)-n4c(C)nnc43)CC2)C(C)(C)C)cc1` [Example 79]: the Emax worked out at 50.8% and the DC50 was above 1 µM.

Take `Cc1ncsc1-c1ccc(CNC(=O)[C@@H]2C[C@@H](O)CN2C(=O)[C@H](C(C)C)N2Cc3ccccc3C2=O)c(OCCOCCOCCOCCOCCOCCNC(=O)C[C@@H]2N=C(c3ccc(Cl)cc3)c3c(sc(C)c3C)-n3c(C)nnc32)c1` [Example 3]: the Emax turned out to be 100% and the DC50 was 0.1 to 1 µM.

Regarding `Cc1ncsc1-c1ccc([C@H](CO)NC(=O)[C@@H]2C[C@@H](O)CN2C(=O)[C@@H](NC(=O)CN2CCC(O[C@H]3C[C@H](NC(=O)C[C@@H]4N=C(c5ccc(Cl)cc5)c5c(sc(C)c5C)-n5c(C)nnc54)C3)CC2)C(C)(C)C)cc1` [Example 351, (2S,4R)-1-[(2S)-3,3-dimethyl-2-(2-{4-[(1,3-trans)-3-{2-[(9S)-7-(4-chlorophenyl)-4,5,13-trimethyl-3-thia-1,8,11,12-tetraazatricyclo[8.3.0.0^2,^6]trideca-2(6),4,7,10,12-pentaen-9-yl]acetamido}cyclobutoxy]piperidin-1-yl}acetamido)butanoyl]-4-hydroxy-N-[(1R)-2-hydroxy-1-[4-(4-methyl-1,3-thiazol-5-yl)phenyl]ethyl]pyrrolidine-2-carboxamide], the Emax turned out to be 100% and the DC50 is below 0.01 µM.

Turning to `Cc1ncsc1-c1ccc(CNC(=O)[C@@H]2C[C@@H](O)CN2C(=O)[C@@H](NC(=O)COCCCOCC#Cc2ccc([C@@H](C)NC(=O)C[C@@H]3N=C(c4ccc(Cl)cc4)c4c(sc(C)c4C)-n4c(C)nnc43)cc2)C(C)(C)C)cc1` [Example 39, (2S,4R)-1-[(2S)-2-(2-{3-[(3-{4-[(1R)-1-{2-[(9S)-7-(4-chlorophenyl)-4,5,13-trimethyl-3-thia-1,8,11,12-tetraazatricyclo[8.3.0.0^2,^6]trideca-2(6),4,7,10,12-pentaen-9-yl]acetamido}-ethyl]phenyl}prop-2-yn-1-yl)oxy]propoxy}acetamido)-3,3-dimethylbutanoyl]-4-hydroxy-N-{[4-(4-methyl-1,3-thiazol-5-yl)phenyl]methyl}pyrrolidine-2-carboxamide], the Emax is 99% and the DC50 lay in the range of 0.01 to 0.1 µM.

Turning to `Cc1ncsc1-c1ccc(CNC(=O)[C@@H]2C[C@@H](O)CN2C(=O)[C@@H](NC(=O)COCCOCCOCCCOCCOCCN(C)C(=O)C[C@@H]2N=C(c3ccc(Cl)cc3)c3c(sc(C)c3C)-n3c(C)nnc32)C(C)(C)C)cc1` [Example 17, (2S,4R)-1-[(2S)-2-(18-{2-[(9S)-7-(4-chlorophenyl)-4,5,13-trimethyl-3-thia-1,8,11,12-tetraazatricyclo[8.3.0.0^2,^6]trideca-2(6),4,7,10,12-pentaen-9-yl]-N-methylacetamido}-3,6,9,13,16-pentaoxaoctadecanamido)-3,3-dimethylbutanoyl]-4-hydroxy-N-{[4-(4-methyl-1,3-thiazol-5-yl)phenyl]methyl}pyrrolidine-2-carboxamide], the Emax was determined as 85% and the DC50 lay within 0.1 to 1 µM.

Consider `Cc1ncsc1-c1ccc(CNC(=O)[C@@H]2C[C@@H](O)CN2C(=O)[C@@H](NC(=O)COCCCCNC(=O)C[C@@H]2N=C(c3ccc(Cl)cc3)c3c(sc(C)c3C)-n3c(C)nnc32)C(C)(C)C)cc1` [Example 45, (2S,4R)-1-[(2S)-2-[2-(4-{2-[(9S)-7-(4-chlorophenyl)-4,5,13-trimethyl-3-thia-1,8,11,12-tetraazatricyclo[8.3.0.0^2,^6]trideca-2(6),4,7,10,12-pentaen-9-yl]acetamido}butoxy)acetamido]-3,3-dimethylbutanoyl]-4-hydroxy-N-{[4-(4-methyl-1,3-thiazol-5-yl)phenyl]methyl}pyrrolidine-2-carboxamide], for which the Emax came to 100% and the DC50 was in the range of 0.1 to 1 µM.

`Cc1ncsc1-c1ccc([C@H](C)NC(=O)[C@@H]2C[C@@H](O)CN2C(=O)[C@@H](NC(=O)Cc2cccc(O[C@H]3C[C@@H](NC(=O)C[C@@H]4N=C(c5ccc(Cl)cc5)c5c(sc(C)c5C)-n5c(C)nnc54)C3)c2)C(C)(C)C)cc1` [Example 204]: the Emax amounted to 88% and the DC50 lay in the range of 0.01 to 0.1 µM.

For the compound `Cc1ncsc1-c1ccc([C@H](C)NC(=O)[C@@H]2C[C@@H](O)CN2C(=O)[C@@H](NC(=O)COc2ccnc(N3CCN(C(=O)C[C@@H]4N=C(c5ccc(Cl)cc5)c5c(sc(C)c5C)-n5c(C)nnc54)CC3)n2)C(C)(C)C)cc1` [Example 330], the Emax turned out to be 89% and the DC50 fell in the range of 0.01 to 0.1 µM.

Consider `Cc1ncsc1-c1ccc(CNC(=O)[C@@H]2C[C@@H](O)CN2C(=O)[C@H](C(C)C)N2Cc3ccccc3C2=O)c(OCCOCCOCCOCCOCCNC(=O)C[C@@H]2N=C(c3ccc(Cl)cc3)c3c(sc(C)c3C)-n3c(C)nnc32)c1` [Example 2], for which the Emax was 41% and the DC50 was above 1 µM.

Consider `Cc1ncsc1-c1ccc([C@H](C)NC(=O)[C@@H]2C[C@@H](O)CN2C(=O)[C@@H](NC(=O)/C=C/c2cc(O[C@H](C)CNC(=O)C[C@@H]3N=C(c4ccc(Cl)cc4)c4c(sc(C)c4C)-n4c(C)nnc43)ccc2F)C(C)(C)C)cc1` [Example 197], for which the Emax was found to be 91.5% and the DC50 was below 0.01 µM.

For the compound `Cc1ncsc1-c1ccc([C@H](C)NC(=O)[C@@H]2C[C@@H](O)CN2C(=O)[C@H](C(C)C)n2cc(-c3cccc(O[C@H]4C[C@@H](NC(=O)C[C@@H]5N=C(c6ccc(Cl)cc6)c6c(sc(C)c6C)-n6c(C)nnc65)C4)c3)cn2)cc1` [Example 243], the Emax was 95.5% and the DC50 is below 0.01 µM.

Take `Cc1ncsc1-c1ccc([C@H](C)NC(=O)[C@@H]2C[C@@H](O)CN2C(=O)[C@@H](NC(=O)[C@H]2CC[C@@H](COCCCNC(=O)C[C@@H]3N=C(c4ccc(Cl)cc4)c4c(sc(C)c4C)-n4c(C)nnc43)O2)C(C)(C)C)cc1` [Example 187]: the Emax came out at 98.5% and the DC50 fell in the range of 0.01 to 0.1 µM.

As to `Cc1ncsc1-c1ccc([C@H](C)NC(=O)[C@@H]2C[C@@H](O)CN2C(=O)[C@@H](NC(=O)CCCCOCCCNC(=O)C[C@@H]2N=C(c3ccc(Cl)cc3)c3c(sc(C)c3C)-n3c(C)nnc32)C(C)(C)C)cc1` [Example 176], the Emax worked out at 90.3% and the DC50 was below 0.01 µM.

On to `Cc1ncsc1-c1ccc([C@H](C)NC(=O)[C@@H]2C[C@@H](O)CN2C(=O)[C@@H](NC(=O)CCc2cc(F)cc(OCCNC(=O)C[C@@H]3N=C(c4ccc(Cl)cc4)c4c(sc(C)c4C)-n4c(C)nnc43)c2)C(C)(C)C)cc1` [Example 150, (2S,4R)-1-[(2S)-2-{3-[3-(2-{2-[(9S)-7-(4-chlorophenyl)-4,5,13-trimethyl-3-thia-1,8,11,12-tetraazatricyclo[8.3.0.0^2,^6]trideca-2(6),4,7,10,12-pentaen-9-yl]acetamido}ethoxy)-5-fluorophenyl]propanamido}-3,3-dimethylbutanoyl]-4-hydroxy-N-[(1S)-1-[4-(4-methyl-1,3-thiazol-5-yl)phenyl]ethyl]pyrrolidine-2-carboxamide], for which the Emax is 93.9% and the DC50 is below 0.01 µM.
